According to patent US7259186B2, “Salts of fenofibric acid and pharmaceutical formulations thereof” (Abbott Laboratories, priority 2002, dated 2007):
Structures can show the parent of a compound that is named as a salt.

Assay: Solid state photostability (ICH light exposure, HPLC recovery)
Format: physicochemical
Conditions: light 300–800 nm under ICH Guideline conditions; lack of degradation = recovery of 95% or greater
Description: The terms “photostability” and “photostable” are used interchangeably herein and refer to a lack of degradation induced by exposure to light from 300–800 nm under the conditions described in the “Guideline for the Photostability Testing of New Drug Substances and Products” (International Conference on Harmonization. Federal Register 1997; […]:27115–22, which is herein incorporated by reference) (hereinafter referred to as the “Guidelines”). As used herein, the term of “lack of degradation” means a recovery of 95% or greater on average, preferably a recovery of 97% or greater on average and most preferably, a recovery of 99% or greater on average of the novel salts of the present invention after exposure to light from 300–800 nm under the conditions described in the Guidelines described above and pursuant to the assay described in Example 28.
About 1–4 mg of each of fenofibric acid form I, fenofibric acid form II, choline, diethanolamine, tromethamine, sodium, calcium, ethanolamine, meglumine, L-lysine, and piperazine was weighed into separate 4 mL clear glass vials. […]
The vials were sealed with PTFE lined caps, and divided into 2 groups with at least three replicates in each group. […] At the end of the light exposure, all samples and controls were removed and analyzed by HPLC using the conditions shown below in Table 6. […]

For `CC(C)(Oc1ccc(C(=O)c2ccc(Cl)cc2)cc1)C(=O)O` [L-Lysine salt, reference compound], the “photostability (in words)” value was “not photostable”.
For `CC(C)(Oc1ccc(C(=O)c2ccc(Cl)cc2)cc1)C(=O)O` [Meglumine salt, reference compound], the “photostability (in words)” value was “not photostable”.
